Measurements as given in PubChem BioAssay AID1996.
≈ marks a conversion by molar mass, not a printed value.

conditions: buffer; pH 7.4; 200.0 µM

Compound	solubility kinetic [µg/mL]
Cc1ccccc1OCCCN1CCOCC1	31.3 (≈ 133 µM)
CN1CCC(CO)(Cc2ccccc2)CC1	28.6 (≈ 130 µM)
CCOc1ccc(C(=O)NNC(=O)CN2C(=O)C3CC=CCC3C2=O)cc1OC (centres undefined)	> 60.2
Cc1ccccc1CNCCCSc1ncccn1.Cl	35.2
Cc1ccc(-c2cnc(-c3ccccc3C(=O)O)o2)cc1	35.2 (≈ 126 µM)
N#Cc1ccc(C(=O)Nc2cc(S(=O)(=O)N3CCOCC3)ccc2N2CCCC2)cc1	> 66.1
CC(=O)c1c(C)[nH]c(C(=O)O)c1C	> 27.2
O=C(COC(=O)CNC(=O)c1ccccc1)Nc1ccc(Cl)cn1	15.8 (≈ 45.4 µM)
CC(=O)c1cccc(NC(=O)CCCSc2ccccc2)c1	2.9 (≈ 9.25 µM)
CN1CCN(C(=O)c2ccc(-c3ccccc3)cc2)CC1	> 42.1
CCN(CC(=O)NCc1ccc(F)cc1)CC(=O)Nc1ccc(Br)cc1F	58.9 (≈ 134 µM)
Cc1ccc(S(=O)(=O)N2CCCCC2)cc1NS(=O)(=O)c1ccccc1F	> 61.9
O=C(COc1ccc(C2SCCS2)cc1)Nc1ccc(Cl)cc1	< 0.8
O=C(O)CSc1nc2ccc(C(=O)c3ccccc3)cc2[nH]1	44.4 (≈ 142 µM)
Cc1cc(C(=O)N2CCN(C(=O)c3ccco3)CC2)ccc1[N+](=O)[O-]	47.5 (≈ 138 µM)
Cn1cncc1COC(=O)c1ccc(Cl)cc1	> 37.6
CNC(=O)COC(=O)c1cc2c(s1)CCCC2	> 38
N#Cc1ccc(C(=O)NCC2CCCCC2)cc1	19.9 (≈ 82.1 µM)
CC(C)Cc1ccc(/C=C/C(=O)N2CCOCC2)cc1	> 41
COc1ccc(C(=O)N2CCC3(CC2)NCCc2[nH]cnc23)cc1	> 49

Compound	solubility kinetic [µg/mL]
CN(C)CCCN1C(=O)CSC1c1ccc([N+](=O)[O-])cc1.Cl (centres undefined)	47.6
CC(=O)c1c(-c2ccccc2)c2cc([N+](=O)[O-])ccc2[nH]c1=O	16.3 (≈ 52.9 µM)
CCN(CC)CCN(C(=O)c1ccc2ccccc2c1)c1nc2ccc(OC)cc2s1.Cl	14.2
COc1ccc(NC(=O)C2CCCCC2)cc1S(=O)(=O)N1CCOCC1	51.6 (≈ 135 µM)
O=C(O)C1CCCCC1C(=O)NC(c1ccccc1)c1ccccc1 (centres undefined)	48.8 (≈ 145 µM)
COc1ccccc1CNC(=O)CN1C(=O)NC(c2ccccc2)(c2ccccc2)C1=O	3.1 (≈ 7.22 µM)
CC(C)CCNc1nc(N)c([N+](=O)[O-])c(NC2CCCCC2)n1	< 0.1
CC(OC(=O)Cc1c[nH]c2ccccc12)C(=O)NC1(C#N)CCCCC1 (centres undefined)	> 53
CN(C)c1ccc(C2Nc3cccc4cccc(c34)N2)cc1	6.1 (≈ 21.1 µM)
Cc1ccc(C)c(NC(=O)CSc2nc(C)cs2)c1	39.9 (≈ 136 µM)
CC(=O)CC(C)(C)NC(C)=S	> 26
O=C(O)c1cc2nccc(-c3ccco3)n2n1	> 34.4
COc1ccc(N=C2NC(=O)/C(=C/C=C/c3ccccc3)S2)cc1	< 0.4
COc1ccc(Cl)cc1C(=O)NCCCN1CCOCC1	> 46.9
CCOc1cc(/C=C2\NC(=O)NC2=O)ccc1OC(C)C(=O)O (centres undefined)	> 48
CCOc1nc(Nc2ccc(OC)cc2)nc(N2CCOCC2)n1	4.8 (≈ 14.5 µM)
O=C1NC(=O)/C(=C\c2ccc(O)cc2O)S1	> 35.6
COc1ccc(OC)c(NC(=O)COC(=O)COc2ccc(Nc3ccccc3)cc2)c1	15.7 (≈ 36 µM)
O=C(Cc1ccccc1)Nc1nccs1	> 32.7
Cc1ccc(NC(=O)CCNC(=O)c2ccccc2)cc1F	2.9 (≈ 9.66 µM)

Compound	solubility kinetic [µg/mL]
O=C(COC(=O)/C=C/c1ccc(F)cc1)NCc1ccco1	5.1 (≈ 16.8 µM)
Cc1ccc(NC(=O)CNC(=O)c2ccc(C)o2)cc1	> 40.8
O=C(O)c1c2c(nc3ccc(Cl)cc13)CCC2	32.1 (≈ 130 µM)
O=C(COc1cccc(C(F)(F)F)c1)Nc1cccnc1	> 44.4
O=C(NCc1c(Cl)cccc1Oc1ccccc1)c1ccccc1	0.9 (≈ 2.66 µM)
Cc1cc(Cl)ccc1C(=O)C1CCCN(Cc2ccon2)C1 (centres undefined)	46.3 (≈ 145 µM)
O=C(/C=C/c1ccco1)N1CCc2ccccc21	31.4 (≈ 131 µM)
S=C(NCc1ccccc1)Nc1cccc2cnccc12	> 44
CCn1c(=O)n(CC)c2cc(NC(=O)c3ccccc3Cl)ccc21	50.4 (≈ 147 µM)
COC(=O)c1cc(NC(=S)NC(=O)c2ccccc2)ccc1N1CCOCC1	1.8 (≈ 4.51 µM)
CCc1cccc(NC(=O)C2CCCN(c3cnccn3)C2)c1 (centres undefined)	> 46.6
CC1CN(C(C)C(=O)NC(c2ccccc2)c2ccccc2)CC(C)O1 (centres undefined)	> 52.9
CN(C(=O)c1ccoc1)c1ccc2ccccc2c1	29.1 (≈ 116 µM)
CCOc1ccccc1N(C)C(=O)c1cn(C)c(=O)c2ccccc12	48.1 (≈ 143 µM)
COc1ccc(CN(C)Cc2c(O)ccc3ccccc23)cc1	16.7 (≈ 54.3 µM)
CN(CC(=O)Nc1cccc(F)c1)C(=O)CSc1ccccc1F	46.7 (≈ 133 µM)
COc1ccc(OCCC(=O)OCC(=O)NCc2ccc(F)cc2)cc1	33.5 (≈ 92.7 µM)
Cc1ccnc(NC(=O)COC(=O)C23CC4CC(CC(C4)C2)C3)n1	8.7 (≈ 26.4 µM)
C=CCn1c(SCC(=O)NC2(C)CCS(=O)(=O)C2)nc2ccccc21 (centres undefined)	> 56.9
